From ChEMBL document CHEMBL3885861, “Open TG-GATES”

Organism: Rattus norvegicus
Experiment: Open TG-GATES - Regimen: Single
Type: toxicity, organism-based, Sprague-Dawley
Set-up: regimen Single, gender Male, age 6 weeks
Conditions: in vivo, po, route gavage; for APTT / Bas / Eos / Fbg / Hb / Ht / Lym / MCH / MCHC / MCV / Mono / Neu / PT / Plat / RBC / Ret / WBC: tissue Blood; for KIDNEY_L / KIDNEY_R / KIDNEY_TOTAL: tissue Kidney; for LIVER: tissue Liver; for A/G / ALP / ALT / AST / BUN / CRE / Ca / Cl / DBIL / GLC / IP / K / LDH / Na / PL / RALB / TBIL / TC / TG / TP / gamma-GTP: tissue Plasma
[1] = 300 mg/kg, 3 h, dose level Middle
[2] = 300 mg/kg, 6 h, dose level Middle
[3] = 300 mg/kg, 9 h, dose level Middle
[4] = 300 mg/kg, 24 h, dose level Middle
[5] = 1000 mg/kg, 3 h, dose level High
[6] = 1000 mg/kg, 6 h, dose level High
[7] = 1000 mg/kg, 9 h, dose level High
[8] = 1000 mg/kg, 24 h, dose level High

Cc1nnc2n1-c1ccc(Cl)cc1C(c1ccccc1Cl)=NC2 [TRIAZOLAM]
TERMINAL_BW [1]: 190.9 g
APTT [1]: 16.4 s
Bas [1]: 0.2%
Eos [1]: 1%
Fbg [1]: 270.4 mg/dL
Hb [1]: 13.9 g/dL
Ht [1]: 42.3%
Lym [1]: 73.8%
MCH [1]: 21 pg
MCHC [1]: 33%
MCV [1]: 63.6 fL
Mono [1]: 3%
Neu [1]: 21.4%
PT [1]: 13.4 s
Plat [1]: 117 x10_4/uL
RBC [1]: 665.8 x10_4/ul
Ret [1]: 9%
WBC [1]: 63.2 x10_2/uL
KIDNEY_L [1]: 0.8 g
KIDNEY_R [1]: 0.8 g
KIDNEY_TOTAL [1]: 1.7 g
LIVER [1]: 8.6 g
A/G [1]: 0.9
ALP [1]: 1451.2 IU/L
ALT [1]: 40.2 IU/L
AST [1]: 71 IU/L
BUN [1]: 9.6 mg/dL
CRE [1]: 0.1 mg/dL
Ca [1]: 11.3 mg/dL
Cl [1]: 103.2 meq/L
DBIL [1]: 0.008 mg/dL
GLC [1]: 189 mg/dL
IP [1]: 10.7 mg/dL
K [1]: 4.2 meq/L
LDH [1]: 79.4 IU/L
Na [1]: 141.4 meq/L
PL [1]: 169.4 mg/dL
RALB [1]: 2.5 g/dL
TBIL [1]: 0.066 mg/dL
TC [1]: 90.4 mg/dL
TG [1]: 60.8 mg/dL
TP [1]: 5.2 g/dL
gamma-GTP [1]: 1.8 IU/L
TERMINAL_BW [2]: 191.6 g
APTT [2]: 17.4 s
Bas [2]: 0%
Eos [2]: 0.4%
Fbg [2]: 282.8 mg/dL
Hb [2]: 13.8 g/dL
Ht [2]: 42.4%
Lym [2]: 77.2%
MCH [2]: 20.5 pg
MCHC [2]: 32.6%
MCV [2]: 63 fL
Mono [2]: 2.4%
Neu [2]: 18.8%
PT [2]: 13.5 s
Plat [2]: 123.3 x10_4/uL
RBC [2]: 674.2 x10_4/ul
Ret [2]: 9.2%
WBC [2]: 77.5 x10_2/uL
KIDNEY_L [2]: 0.9 g
KIDNEY_R [2]: 0.9 g
KIDNEY_TOTAL [2]: 1.8 g
LIVER [2]: 8.3 g
A/G [2]: 0.9
ALP [2]: 1395 IU/L
ALT [2]: 35.6 IU/L
AST [2]: 66.6 IU/L
BUN [2]: 10.2 mg/dL
CRE [2]: 0.1 mg/dL
Ca [2]: 11.2 mg/dL
Cl [2]: 103 meq/L
DBIL [2]: 0.01 mg/dL
GLC [2]: 183.4 mg/dL
IP [2]: 10.9 mg/dL
K [2]: 4.1 meq/L
LDH [2]: 63.2 IU/L
Na [2]: 141.8 meq/L
PL [2]: 147.6 mg/dL
RALB [2]: 2.5 g/dL
TBIL [2]: 0.068 mg/dL
TC [2]: 81.2 mg/dL
TG [2]: 37.6 mg/dL
TP [2]: 5.3 g/dL
gamma-GTP [2]: 1 IU/L
TERMINAL_BW [3]: 193.6 g
APTT [3]: 16.7 s
Bas [3]: 0%
Eos [3]: 0.8%
Fbg [3]: 279.6 mg/dL
Hb [3]: 13.5 g/dL
Ht [3]: 41.2%
Lym [3]: 74%
MCH [3]: 21.4 pg
MCHC [3]: 32.8%
MCV [3]: 65.5 fL
Mono [3]: 2.2%
Neu [3]: 22%
PT [3]: 13.5 s
Plat [3]: 121.1 x10_4/uL
RBC [3]: 629.6 x10_4/ul
Ret [3]: 9.5%
WBC [3]: 87.2 x10_2/uL
KIDNEY_L [3]: 0.9 g
KIDNEY_R [3]: 0.8 g
KIDNEY_TOTAL [3]: 1.7 g
LIVER [3]: 7.6 g
A/G [3]: 0.9
ALP [3]: 1488.6 IU/L
ALT [3]: 32 IU/L
AST [3]: 65.2 IU/L
BUN [3]: 10 mg/dL
CRE [3]: 0.2 mg/dL
Ca [3]: 11 mg/dL
Cl [3]: 104.4 meq/L
DBIL [3]: 0.01 mg/dL
GLC [3]: 188 mg/dL
IP [3]: 10.6 mg/dL
K [3]: 4.4 meq/L
LDH [3]: 57.4 IU/L
Na [3]: 141.2 meq/L
PL [3]: 144.2 mg/dL
RALB [3]: 2.4 g/dL
TBIL [3]: 0.058 mg/dL
TC [3]: 74.2 mg/dL
TG [3]: 49.4 mg/dL
TP [3]: 5.1 g/dL
gamma-GTP [3]: 1.2 IU/L
TERMINAL_BW [4]: 207.4 g
APTT [4]: 28.1 s
Bas [4]: 0%
Eos [4]: 1%
Fbg [4]: 263.2 mg/dL
Hb [4]: 13.5 g/dL
Ht [4]: 40.8%
Lym [4]: 74.8%
MCH [4]: 21 pg
MCHC [4]: 33%
MCV [4]: 63.6 fL
Mono [4]: 2.6%
Neu [4]: 21%
PT [4]: 13.3 s
Plat [4]: 127 x10_4/uL
RBC [4]: 643.6 x10_4/ul
Ret [4]: 8%
WBC [4]: 94.8 x10_2/uL
KIDNEY_L [4]: 0.9 g
KIDNEY_R [4]: 0.9 g
KIDNEY_TOTAL [4]: 1.8 g
LIVER [4]: 9.2 g
A/G [4]: 0.9
ALP [4]: 1802.4 IU/L
ALT [4]: 44.4 IU/L
AST [4]: 66.2 IU/L
BUN [4]: 11.8 mg/dL
CRE [4]: 0.2 mg/dL
Ca [4]: 11.3 mg/dL
Cl [4]: 102.8 meq/L
DBIL [4]: 0.018 mg/dL
GLC [4]: 180.2 mg/dL
IP [4]: 9.2 mg/dL
K [4]: 4.5 meq/L
LDH [4]: 73.6 IU/L
Na [4]: 140.8 meq/L
PL [4]: 155.2 mg/dL
RALB [4]: 2.6 g/dL
TBIL [4]: 0.058 mg/dL
TC [4]: 77.6 mg/dL
TG [4]: 88 mg/dL
TP [4]: 5.4 g/dL
gamma-GTP [4]: 1 IU/L
TERMINAL_BW [5]: 193.6 g
APTT [5]: 16 s
Bas [5]: 0%
Eos [5]: 1%
Fbg [5]: 277.8 mg/dL
Hb [5]: 13.8 g/dL
Ht [5]: 41.7%
Lym [5]: 72%
MCH [5]: 20.9 pg
MCHC [5]: 33.2%
MCV [5]: 63 fL
Mono [5]: 3.2%
Neu [5]: 23%
PT [5]: 13.4 s
Plat [5]: 135.1 x10_4/uL
RBC [5]: 663 x10_4/ul
Ret [5]: 9.1%
WBC [5]: 64.9 x10_2/uL
KIDNEY_L [5]: 0.9 g
KIDNEY_R [5]: 0.9 g
KIDNEY_TOTAL [5]: 1.8 g
LIVER [5]: 8.3 g
A/G [5]: 0.9
ALP [5]: 1289.6 IU/L
ALT [5]: 38.8 IU/L
AST [5]: 72 IU/L
BUN [5]: 9.4 mg/dL
CRE [5]: 0.1 mg/dL
Ca [5]: 11 mg/dL
Cl [5]: 102.6 meq/L
DBIL [5]: 0.008 mg/dL
GLC [5]: 174.6 mg/dL
IP [5]: 10.4 mg/dL
K [5]: 4.3 meq/L
LDH [5]: 97.8 IU/L
Na [5]: 139.6 meq/L
PL [5]: 148.8 mg/dL
RALB [5]: 2.4 g/dL
TBIL [5]: 0.064 mg/dL
TC [5]: 78.2 mg/dL
TG [5]: 50 mg/dL
TP [5]: 5.2 g/dL
gamma-GTP [5]: 1 IU/L
TERMINAL_BW [6]: 193.6 g
APTT [6]: 18.3 s
Bas [6]: 0%
Eos [6]: 0.6%
Fbg [6]: 282 mg/dL
Hb [6]: 13.9 g/dL
Ht [6]: 42.3%
Lym [6]: 75.8%
MCH [6]: 20.6 pg
MCHC [6]: 32.8%
MCV [6]: 62.8 fL
Mono [6]: 2.2%
Neu [6]: 20.4%
PT [6]: 13.5 s
Plat [6]: 122.7 x10_4/uL
RBC [6]: 674 x10_4/ul
Ret [6]: 8.5%
WBC [6]: 87.5 x10_2/uL
KIDNEY_L [6]: 0.9 g
KIDNEY_R [6]: 0.9 g
KIDNEY_TOTAL [6]: 1.8 g
LIVER [6]: 8.3 g
A/G [6]: 0.9
ALP [6]: 1325.6 IU/L
ALT [6]: 36 IU/L
AST [6]: 67.4 IU/L
BUN [6]: 10 mg/dL
CRE [6]: 0.1 mg/dL
Ca [6]: 11.2 mg/dL
Cl [6]: 103.2 meq/L
DBIL [6]: 0.012 mg/dL
GLC [6]: 184.2 mg/dL
IP [6]: 10.9 mg/dL
K [6]: 4.5 meq/L
LDH [6]: 87.2 IU/L
Na [6]: 141.6 meq/L
PL [6]: 162.8 mg/dL
RALB [6]: 2.5 g/dL
TBIL [6]: 0.056 mg/dL
TC [6]: 85.4 mg/dL
TG [6]: 68.2 mg/dL
TP [6]: 5.3 g/dL
gamma-GTP [6]: 1.6 IU/L
TERMINAL_BW [7]: 192.1 g
APTT [7]: 16.7 s
Bas [7]: 0%
Eos [7]: 0.6%
Fbg [7]: 282.6 mg/dL
Hb [7]: 13.3 g/dL
Ht [7]: 40.5%
Lym [7]: 74.2%
MCH [7]: 20.9 pg
MCHC [7]: 32.8%
MCV [7]: 63.8 fL
Mono [7]: 2.4%
Neu [7]: 21.6%
PT [7]: 13.9 s
Plat [7]: 116.9 x10_4/uL
RBC [7]: 635.4 x10_4/ul
Ret [7]: 9.5%
WBC [7]: 86.1 x10_2/uL
KIDNEY_L [7]: 0.9 g
KIDNEY_R [7]: 0.9 g
KIDNEY_TOTAL [7]: 1.8 g
LIVER [7]: 7.6 g
A/G [7]: 0.9
ALP [7]: 1384.4 IU/L
ALT [7]: 41.8 IU/L
AST [7]: 73.4 IU/L
BUN [7]: 9 mg/dL
CRE [7]: 0.1 mg/dL
Ca [7]: 10.9 mg/dL
Cl [7]: 104 meq/L
DBIL [7]: 0.014 mg/dL
GLC [7]: 177.8 mg/dL
IP [7]: 10.6 mg/dL
K [7]: 4.4 meq/L
LDH [7]: 84.2 IU/L
Na [7]: 141 meq/L
PL [7]: 148 mg/dL
RALB [7]: 2.5 g/dL
TBIL [7]: 0.064 mg/dL
TC [7]: 76.4 mg/dL
TG [7]: 56.4 mg/dL
TP [7]: 5.1 g/dL
gamma-GTP [7]: 1.4 IU/L
TERMINAL_BW [8]: 208.3 g
APTT [8]: 17 s
Bas [8]: 0.2%
Eos [8]: 0.8%
Fbg [8]: 290.2 mg/dL
Hb [8]: 13.9 g/dL
Ht [8]: 41.6%
Lym [8]: 75.4%
MCH [8]: 20.8 pg
MCHC [8]: 33.4%
MCV [8]: 62.2 fL
Mono [8]: 2.8%
Neu [8]: 20.4%
PT [8]: 13 s
Plat [8]: 128.9 x10_4/uL
RBC [8]: 669.2 x10_4/ul
Ret [8]: 8.2%
WBC [8]: 97.7 x10_2/uL
KIDNEY_L [8]: 0.9 g
KIDNEY_R [8]: 0.9 g
KIDNEY_TOTAL [8]: 1.8 g
LIVER [8]: 9.9 g
A/G [8]: 0.9
ALP [8]: 1921.8 IU/L
ALT [8]: 44.8 IU/L
AST [8]: 60.2 IU/L
BUN [8]: 13.6 mg/dL
CRE [8]: 0.2 mg/dL
Ca [8]: 11.5 mg/dL
Cl [8]: 100.8 meq/L
DBIL [8]: 0.014 mg/dL
GLC [8]: 175.6 mg/dL
IP [8]: 10 mg/dL
K [8]: 4.3 meq/L
LDH [8]: 84.4 IU/L
Na [8]: 141.4 meq/L
PL [8]: 167.6 mg/dL
RALB [8]: 2.7 g/dL
TBIL [8]: 0.058 mg/dL
TC [8]: 85.2 mg/dL
TG [8]: 84.2 mg/dL
TP [8]: 5.6 g/dL
gamma-GTP [8]: 1 IU/L
